Measured values published in US20230064490A1, “FLUORESCENT PROTEIN BIOSENSOR FOR DETECTION OF KINASE ACTIVITY” (Lucidicor Inc., priority 2018, published 2023).

Test system: PKA
Test: PKA-PhosFluor fluorescence in transfected HEK-293 cells treated with drug
Format: cell-based, human
Settings: HEK-293 cells transfected with PKA-PhosFluor; excitation 488 nm, emission 530 nm; 6 hr after addition of drug
Experimental: PKA-PhosFluor and cat_PKA are transcribed from different plasmids maintained by separate antibiotic resistance genes. FIG. 2C and FIG. 2D show charcoal agar plates streaked with E. coli containing the two plasmids indicated in B. The control plate lacks IPTG (FIG. 2C) while the IPTG plate was treated with 1 mM IPTG for 24 hours (FIG. 2D). […] Graphs depict % fluorescence change (excitation 488 nm; emission 530 nm) measured using a microplate reader 6 hr after addition of the indicated drug. Error bars indicate ±SEM (n=6). FIG. 2F is a schematic diagram showing mechanism of action for each drug.
Next, the ability of PKA-PhosFluor to monitor PKA activity in mammalian cells was examined. PKA activity is regulated by the level of cAMP, which itself, is regulated by other signaling pathways and cell growth (Uhler et al., 1986). […] All the drugs used have widely varying mechanisms of action (FIG. 2F).

Compound	fluorescence of PKA-PhosFluor (% fluorescence change)
Nc1ncnc2c1ncn2[C@@H]1O[C@@H]2COP(O)(=S)O[C@H]2[C@H]1O (some centres unmarked) [Rp-cAMP]	reduced fluorescence
CCCCCCOC(=O)[C@]1(O)C[C@@H]2O[C@@]1(C)n1c3ccccc3c3c4c(c5c6ccccc6n2c5c31)C(=O)NC4 [KT-5720]	reduced fluorescence
O=S(=O)(NCCNC/C=C/c1ccc(Br)cc1)c1cccc2cnccc12 [H89]	reduced fluorescence
Nc1ncnc2c1nc(Br)n2[C@@H]1O[C@@H]2COP(=O)(O)O[C@H]2[C@H]1O [br-cAMP]	induced fluorescence
CC(C)Cn1c(=O)n(C)c(=O)c2[nH]cnc21 [IBMX]	induced fluorescence
